# Reference: ChEMBL document CHEMBL1649297, “Mutations in ribosomal protein L3 are associated with oxazolidinone resistance in staphylococci of clinical origin” (2009)
# Experiments:
# Assay type in all cases: functional
# [1] = test system: Staphylococcus epidermidis; assay: Antibacterial activity against Staphylococcus epidermidis 1653059 harboring rplC G469A/C470G, L3 Ala157Arg and 23S rRNA G2447T mutant by CLSI broth microdilution assay
# [2] = test system: Staphylococcus epidermidis; assay: Antibacterial activity against […] Staphylococcus epidermidis ATCC 12228 by CLSI broth microdilution assay
# Staphylococcus aureus [3] = assay: Antibacterial activity against methicillin-susceptible Staphylococcus aureus ATCC 29213 by CLSI broth microdilution assay
# Staphylococcus aureus [4] = assay: Antibacterial activity against Staphylococcus aureus NARSA NRS127 harboring rplC T433 to T435 and L3 Ser145 deletion mutant by CLSI broth microdilution assay
compound,measurement,setting,value
Cn1nnc(-c2ccc(-c3ccc(N4C[C@H](CO)OC4=O)cc3F)cn2)n1 [TEDIZOLID],MIC,[1],16 µg/mL
same,MIC,[2],0.25 µg/mL
same,MIC,Staphylococcus aureus [3],0.5 µg/mL
same,MIC,Staphylococcus aureus [4],1 µg/mL
O=C(N[C@H](CO)[C@H](O)c1ccc([N+](=O)[O-])cc1)C(Cl)Cl [CHLORAMPHENICOL],MIC,[1],2 µg/mL
same,MIC,[2],1 µg/mL
same,MIC,Staphylococcus aureus [3],8 µg/mL
same,MIC,Staphylococcus aureus [4],8 µg/mL
C=C[C@]1(C)C[C@@H](OC(=O)CSCCN(CC)CC)[C@]2(C)[C@H](C)CC[C@]3(CCC(=O)[C@H]32)[C@@H](C)[C@@H]1O [TIAMULIN],MIC,[1],8 µg/mL
same,MIC,[2],0.5 µg/mL
same,MIC,Staphylococcus aureus [3],1 µg/mL
same,MIC,Staphylococcus aureus [4],4 µg/mL
CC(=O)NC[C@H]1CN(c2ccc(N3CCOCC3)c(F)c2)C(=O)O1 [LINEZOLID],MIC,[1],256 µg/mL
same,MIC,[2],1 µg/mL
same,MIC,Staphylococcus aureus [4],8 µg/mL
